From PubChem BioAssay AID1963970 (Molecular Pharmacology Branch, DTP, NCI, 2024)

Test system: 931267-113-T-J1-PDC multicell spheroid viability
Assay: Anticancer human tumor 931267-113-T-J1-PDC patient-derived colon adenocarcinoma cell line growth inhibition [PI3K]
Conditions: for IC50: curve of first compound; for viability, T/C: stronger effect = lower value; active = viability on the fitted dose curve at most 10% of control; inactive = the rest
Method in brief: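 Combination activity was assessed by viability in multicellular tumor spheroids carrying HUVEC and MSC components. Agents were tested with PI3K inhibitors from a Cmax-based top dose (or 10 microM) downward in half-log increments.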

[1] = second compound 0.0316 µM, first compound 0.0316 µM
[2] = second compound 0.0316 µM, first compound 0.1 µM
[3] = second compound 0.0316 µM, first compound 0.316 µM
[4] = second compound 0.0316 µM, first compound 1 µM
[5] = second compound 0.0316 µM, first compound 3.16 µM
[6] = second compound 0.0316 µM, first compound 10 µM
[7] = second compound 0.1 µM, first compound 0.0316 µM
[8] = second compound 0.1 µM, first compound 0.1 µM
[9] = second compound 0.1 µM, first compound 0.316 µM
[10] = second compound 0.1 µM, first compound 1 µM
[11] = second compound 0.1 µM, first compound 3.16 µM
[12] = second compound 0.1 µM, first compound 10 µM
[13] = second compound 0.316 µM, first compound 0.0316 µM
[14] = second compound 0.316 µM, first compound 0.1 µM
[15] = second compound 0.316 µM, first compound 0.316 µM
[16] = second compound 0.316 µM, first compound 1 µM
[17] = second compound 0.316 µM, first compound 3.16 µM
[18] = second compound 0.316 µM, first compound 10 µM
[19] = second compound 1 µM, first compound 0.0316 µM
[20] = second compound 1 µM, first compound 0.1 µM
[21] = second compound 1 µM, first compound 0.316 µM
[22] = second compound 1 µM, first compound 1 µM
[23] = second compound 1 µM, first compound 3.16 µM
[24] = second compound 1 µM, first compound 10 µM
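Also: viability read 7 days after compound addition.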

CC1(C)CCC(Nc2ncc(C(F)(F)F)c(-c3c[nH]c4c(P(C)(C)=O)c(C#N)ccc34)n2)CN1 (stereo unspecified) + CC(Nc1ccc2c(c1)OCCn1cc(N3C(=O)OCC3C(F)F)nc1-2)C(N)=O
6.39 µM: IC50 (second compound 0.316 µM)
> 10 µM: IC50 (second compound 0.00316 µM) | IC50 (second compound 0.01 µM) | IC50 (second compound 0.1 µM)
4.8 µM: IC50 (second compound 1 µM)
inactive: viability, T/C (second compound 0.00316 µM, first compound 0.0316 µM) 99.7% | viability, T/C (second compound 0.00316 µM, first compound 0.1 µM) 88.6% | viability, T/C (second compound 0.00316 µM, first compound 0.316 µM) 85.2% | viability, T/C (second compound 0.00316 µM, first compound 1 µM) 71.8% | viability, T/C (second compound 0.00316 µM, first compound 3.16 µM) 78.2% | viability, T/C (second compound 0.00316 µM, first compound 10 µM) 49.5% | viability, T/C (second compound 0.01 µM, first compound 0.0316 µM) 102% | viability, T/C (second compound 0.01 µM, first compound 0.1 µM) 89.2% | viability, T/C (second compound 0.01 µM, first compound 0.316 µM) 83.5% | viability, T/C (second compound 0.01 µM, first compound 1 µM) 74.6% | viability, T/C (second compound 0.01 µM, first compound 3.16 µM) 67.7% | viability, T/C (second compound 0.01 µM, first compound 10 µM) 49.8% | viability, T/C [1] 91.2% | viability, T/C [2] 88.2% | viability, T/C [3] 79.6% | viability, T/C [4] 71.5% | viability, T/C [5] 72.8% | viability, T/C [6] 45% | viability, T/C [7] 99.7% | viability, T/C [8] 90.5% | viability, T/C [9] 76.6% | viability, T/C [10] 74% | viability, T/C [11] 73.7% | viability, T/C [12] 46.2% | viability, T/C [13] 87% | viability, T/C [14] 79% | viability, T/C [15] 72.9% | viability, T/C [16] 74.1% | viability, T/C [17] 73.1% | viability, T/C [18] 36% | viability, T/C [19] 81.4% | viability, T/C [20] 75.4% | viability, T/C [21] 64.2% | viability, T/C [22] 65.2% | viability, T/C [23] 64.2% | viability, T/C [24] 34.6%
8.54 µM: IC50 (second compound 0.0316 µM)

CNC(=O)c1ccc(N2C(=S)N(c3ccc(C#N)c(C(F)(F)F)c3)C(=O)C2(C)C)cc1F + CC(Nc1ncnc2nc[nH]c12)c1cc2cccc(Cl)c2c(=O)n1-c1ccccc1
inactive: viability, T/C [1] 107% | viability, T/C [2] 96.7% | viability, T/C [3] 113% | viability, T/C [4] 97.2% | viability, T/C [5] 111% | viability, T/C [6] 109% | viability, T/C [7] 108% | viability, T/C [8] 101% | viability, T/C [9] 104% | viability, T/C [10] 104% | viability, T/C [11] 101% | viability, T/C [12] 103% | viability, T/C [13] 103% | viability, T/C [14] 104% | viability, T/C [15] 100% | viability, T/C [16] 107% | viability, T/C [17] 115% | viability, T/C [18] 103% | viability, T/C [19] 102% | viability, T/C [20] 103% | viability, T/C [21] 96.6% | viability, T/C [22] 102% | viability, T/C [23] 117% | viability, T/C [24] 109% | viability, T/C (second compound 3.16 µM, first compound 0.0316 µM) 100% | viability, T/C (second compound 3.16 µM, first compound 0.1 µM) 98.9% | viability, T/C (second compound 3.16 µM, first compound 0.316 µM) 92.4% | viability, T/C (second compound 3.16 µM, first compound 1 µM) 103% | viability, T/C (second compound 3.16 µM, first compound 3.16 µM) 96.5% | viability, T/C (second compound 3.16 µM, first compound 10 µM) 104% | viability, T/C (second compound 10 µM, first compound 0.0316 µM) 99% | viability, T/C (second compound 10 µM, first compound 0.1 µM) 97.9% | viability, T/C (second compound 10 µM, first compound 0.316 µM) 93.9% | viability, T/C (second compound 10 µM, first compound 1 µM) 96.1% | viability, T/C (second compound 10 µM, first compound 3.16 µM) 102% | viability, T/C (second compound 10 µM, first compound 10 µM) 84.4%
> 10 µM: IC50 (second compound 0.0316 µM) | IC50 (second compound 0.1 µM) | IC50 (second compound 0.316 µM) | IC50 (second compound 1 µM) | IC50 (second compound 3.16 µM) | IC50 (second compound 10 µM)

Cn1cnc2c(F)c(Nc3ccc(Br)cc3Cl)c(C(=O)NOCCO)cc21 + CC(Nc1ncnc2nc[nH]c12)c1cc2cccc(Cl)c2c(=O)n1-c1ccccc1
inactive: viability, T/C (second compound 0.0316 µM, first compound 0.00949 µM) 84% | viability, T/C (second compound 0.0316 µM, first compound 0.03 µM) 71.9% | viability, T/C (second compound 0.0316 µM, first compound 0.0949 µM) 51.7% | viability, T/C (second compound 0.0316 µM, first compound 0.3 µM) 38.4% | viability, T/C (second compound 0.0316 µM, first compound 0.949 µM) 23% | viability, T/C (second compound 0.0316 µM, first compound 3 µM) 12.8% | viability, T/C (second compound 0.1 µM, first compound 0.00949 µM) 89.1% | viability, T/C (second compound 0.1 µM, first compound 0.03 µM) 80.1% | viability, T/C (second compound 0.1 µM, first compound 0.0949 µM) 55.4% | viability, T/C (second compound 0.1 µM, first compound 0.3 µM) 33.1% | viability, T/C (second compound 0.1 µM, first compound 0.949 µM) 25.1% | viability, T/C (second compound 0.1 µM, first compound 3 µM) 13.6% | viability, T/C (second compound 0.316 µM, first compound 0.00949 µM) 92.1% | viability, T/C (second compound 0.316 µM, first compound 0.03 µM) 77.9% | viability, T/C (second compound 0.316 µM, first compound 0.0949 µM) 51.8% | viability, T/C (second compound 0.316 µM, first compound 0.3 µM) 33.4% | viability, T/C (second compound 0.316 µM, first compound 0.949 µM) 23.1% | viability, T/C (second compound 0.316 µM, first compound 3 µM) 12.9% | viability, T/C (second compound 1 µM, first compound 0.00949 µM) 88.8% | viability, T/C (second compound 1 µM, first compound 0.03 µM) 72% | viability, T/C (second compound 1 µM, first compound 0.0949 µM) 51.6% | viability, T/C (second compound 1 µM, first compound 0.3 µM) 32.3% | viability, T/C (second compound 1 µM, first compound 0.949 µM) 24.4% | viability, T/C (second compound 1 µM, first compound 3 µM) 10.6% | viability, T/C (second compound 3.16 µM, first compound 0.00949 µM) 74% | viability, T/C (second compound 3.16 µM, first compound 0.03 µM) 69.2% | viability, T/C (second compound 3.16 µM, first compound 0.0949 µM) 48.1% | viability, T/C (second compound 3.16 µM, first compound 0.3 µM) 31.9% | viability, T/C (second compound 3.16 µM, first compound 0.949 µM) 21.4% | viability, T/C (second compound 3.16 µM, first compound 3 µM) 11% | viability, T/C (second compound 10 µM, first compound 0.00949 µM) 79.2% | viability, T/C (second compound 10 µM, first compound 0.03 µM) 62.8% | viability, T/C (second compound 10 µM, first compound 0.0949 µM) 41% | viability, T/C (second compound 10 µM, first compound 0.3 µM) 29% | viability, T/C (second compound 10 µM, first compound 0.949 µM) 15.2%
active: viability, T/C (second compound 10 µM, first compound 3 µM) 7.35%
0.0616 µM: IC50 (second compound 10 µM)
0.117 µM: IC50 (second compound 0.316 µM)
0.0967 µM: IC50 (second compound 3.16 µM)
0.107 µM: IC50 (second compound 1 µM)
0.133 µM: IC50 (second compound 0.1 µM)
0.123 µM: IC50 (second compound 0.0316 µM)
